{
  "source": "paper PMC6560211",
  "about": "“ApoAI-derived peptide increases glucose tolerance and prevents formation of atherosclerosis in mice” (Diabetologia, 2019)",
  "experiment": "Peptide homogeneity (particle size) by dynamic light scattering",
  "assay_type": "physicochemical",
  "method": "Peptide (lyophilised powder) produced by Red Glead (Lund, Sweden) was reconstituted in Milli-Q water and then either used directly or mixed in a 1:1 ratio with 6 mol/l guanidine HCl in 2× PBS to give a monodisperse solution, followed by desalting using a column equilibrated with PBS, pH 7.4, using ÄKTAxpress fast protein LC (GE Healthcare, Uppsala, Sweden). Peptide integrity was analysed using circular dichroism spectroscopy. Peptide solubility was assayed at Red Glead using HPLC. Peptide stability in physiologic buffer or blood plasma (human or mouse) over 2 h was assayed at the Science for Life Laboratory (Uppsala, Sweden). For detailed methods, please refer to the electronic supplementary material (ESM) Methods.\nThe peptide RG54 was synthesised with natural amino acids and then modified with an acetylation cap on the N-terminus in order to reduce the susceptibility for proteolytic degradation by […] (ESM Fig. 3a). […] Peptide integrity following the denaturation/refolding procedure was confirmed using gel electrophoresis and circular dichroism spectroscopy analyses (ESM Fig. 3d,e) and by peptide stability assays (buffer or plasma) (ESM Fig. 3f).\nESM Figure 3. Peptide characterization for native or refolded RG54.\n(a) Full peptide sequence. Particle size distribution of RG54 was analysed by DLS and frequency curves generated for Native (b) or Refolded (c) peptide. […]",
  "note": "No end group written: not given here.",
  "data": [
    {"substance": "Ac-AEYHAKATEHLSTLSEKAKPALEDLRQGLLPVLESFKVSFLSALEEYTKKLNTQ [RG54]", "values": [
      {"measurement": "homogeneity (DLS) after chemical denaturation and refolding", "setting": "6 mol/l guanidine HCl in 2x PBS 1:1, desalted into PBS pH 7.4", "value": "monodisperse preparations"},
      {"measurement": "homogeneity, dynamic size range (DLS)", "setting": "native peptide reconstituted in Milli-Q water, five individual experiments", "value": "significant inter- and intra-sample heterogeneity"}
    ]}
  ]
}
